Laboratory results: ChEMBL document CHEMBL1201862, “PubChem BioAssay data set” (2004)
Active and inactive are the calls of the source.

Columns and labels:
cells = assay type: functional
[1] = molecular target: Luciferin 4-monooxygenase (Photinus pyralis, UniProt P08659); test: firefly luciferase enzyme inhibitors, dose response, biochemical, luminescence (AID 1891)
[2] = Luminescence Cell-Based Dose Confirmation HTS to Identify Inhibitors of Platelet Dense Granule Release. [Related pubchem assays: 1663 (Primary HTS), 1678 (Summary of Project)]; assay type: functional
[3] = molecular target: FAD-linked sulfhydryl oxidase ALR (Homo sapiens, UniProt P55789); test: inhibitors of human ALR sulfhydryl oxidase, dose response, biochemical, H2O2 detection, luminescence, cherry-pick (AID 493248)
Chain of FAD-linked sulfhydryl oxidase ALR (P55789 whole entry): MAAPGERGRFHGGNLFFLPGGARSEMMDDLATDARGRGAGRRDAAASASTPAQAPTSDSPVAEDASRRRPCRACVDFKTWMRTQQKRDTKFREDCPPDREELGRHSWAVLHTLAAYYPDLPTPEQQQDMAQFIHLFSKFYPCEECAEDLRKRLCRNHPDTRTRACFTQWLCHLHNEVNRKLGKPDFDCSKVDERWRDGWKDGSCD

[4] = NIH-3T3 fibroblast cytotoxicity, dose response, cytotoxicity control, cell-based, fluorescence, Alamar Blue, secondary assay (AID 2327); assay type: functional;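 also: NIH-3T3 mouse fibroblasts cultured with fluconazole at 8 µg/mL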
[5] = Luminescence Cell-Based Dose Response HTS to Identify Activators of Luciferase Translation or Activity in H4 […] Cells. [Related pubchem assays: 1829 (Project Summary), 1814 (Primary HTS)]; assay type: functional
H4 = test: Luminescence Cell-Based Dose Response HTS to Identify Activators of 5'UTR Stem-Loop Driven Prion Protein mRNA Translation in H4 Neuroglioblastoma Cells. [Related pubchem assays: 1829 (Project Summary), 1814 (Primary HTS)]; assay type: functional; conditions: Homo sapiens
[6] = molecular target: T1, Rac GTPase-activating protein 1 (Homo sapiens, UniProt Q9H0H5); test: MgcRacGAP GTPase-activating activity inhibitors, confirmation, biochemical, ADP Hunter fluorescence, primary and confirmatory (AID 624330); assay type: functional
T1 sequence (Q9H0H5 whole entry): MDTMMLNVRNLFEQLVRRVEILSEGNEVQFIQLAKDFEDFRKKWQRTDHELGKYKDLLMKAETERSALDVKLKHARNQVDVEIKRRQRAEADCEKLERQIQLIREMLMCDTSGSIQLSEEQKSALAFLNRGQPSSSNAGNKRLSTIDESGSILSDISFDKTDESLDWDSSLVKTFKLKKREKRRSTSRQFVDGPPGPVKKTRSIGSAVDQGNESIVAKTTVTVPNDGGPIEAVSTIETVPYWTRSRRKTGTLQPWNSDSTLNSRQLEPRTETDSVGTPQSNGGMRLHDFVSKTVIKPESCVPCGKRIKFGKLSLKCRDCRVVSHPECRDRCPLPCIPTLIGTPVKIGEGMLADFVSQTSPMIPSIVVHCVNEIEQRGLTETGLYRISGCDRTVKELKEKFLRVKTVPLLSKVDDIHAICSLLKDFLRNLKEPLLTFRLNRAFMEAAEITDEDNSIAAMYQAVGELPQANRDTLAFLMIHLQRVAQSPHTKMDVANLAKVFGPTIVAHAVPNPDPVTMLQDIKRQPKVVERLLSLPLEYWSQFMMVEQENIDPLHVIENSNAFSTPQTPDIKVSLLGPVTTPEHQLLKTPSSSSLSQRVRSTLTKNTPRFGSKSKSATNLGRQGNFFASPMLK

[7] = C. albicans growth with fluconazole, confirmation, fluorescence, retest (AID 2467); assay type: functional, cell-based
Protein RecA = molecular target: T2, Protein RecA (Mycobacterium tuberculosis, UniProt P9WHJ3); test: Fluorescence Cell-Free Homogeneous Dose Retest to Identify Inhibitors of RecA-Intein Splicing Activity. [Related pubchem assays (depositor defined):AID2097, AID2223, AID489010, AID492950]; assay type: functional
T2 sequence (P9WHJ3 whole entry): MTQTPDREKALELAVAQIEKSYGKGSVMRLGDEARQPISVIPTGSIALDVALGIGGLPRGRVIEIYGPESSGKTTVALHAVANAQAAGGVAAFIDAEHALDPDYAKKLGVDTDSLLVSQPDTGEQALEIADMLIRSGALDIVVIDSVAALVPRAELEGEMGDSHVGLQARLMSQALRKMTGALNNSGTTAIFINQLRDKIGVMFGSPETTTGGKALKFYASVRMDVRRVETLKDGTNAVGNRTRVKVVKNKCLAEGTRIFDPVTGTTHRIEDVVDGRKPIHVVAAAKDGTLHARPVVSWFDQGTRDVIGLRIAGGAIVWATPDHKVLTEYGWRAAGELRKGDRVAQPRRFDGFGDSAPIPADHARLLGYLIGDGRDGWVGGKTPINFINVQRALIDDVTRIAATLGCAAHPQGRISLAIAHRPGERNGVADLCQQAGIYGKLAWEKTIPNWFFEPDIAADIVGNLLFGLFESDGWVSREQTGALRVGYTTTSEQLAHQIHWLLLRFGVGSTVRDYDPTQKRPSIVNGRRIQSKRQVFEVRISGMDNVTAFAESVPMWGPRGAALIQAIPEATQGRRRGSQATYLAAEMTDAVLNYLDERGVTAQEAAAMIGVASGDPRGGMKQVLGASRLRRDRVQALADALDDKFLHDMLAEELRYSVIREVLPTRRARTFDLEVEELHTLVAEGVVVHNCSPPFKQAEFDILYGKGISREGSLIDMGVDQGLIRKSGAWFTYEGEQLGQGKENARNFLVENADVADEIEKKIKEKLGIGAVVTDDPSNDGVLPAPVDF

Fatty acid synthase [8] = molecular target: T3, Fatty acid synthase (Homo sapiens, UniProt P49327); test: FAS thioesterase domain inhibitors, dose response, biochemical, kinetic fluorescence intensity (AID 624326); assay type: functional;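 also: rate of fluorescence rise from hydrolysis of a fluorogenic O-methyl fluorescein ester substrate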
T3 sequence (P49327 whole entry, the tested form may be a part): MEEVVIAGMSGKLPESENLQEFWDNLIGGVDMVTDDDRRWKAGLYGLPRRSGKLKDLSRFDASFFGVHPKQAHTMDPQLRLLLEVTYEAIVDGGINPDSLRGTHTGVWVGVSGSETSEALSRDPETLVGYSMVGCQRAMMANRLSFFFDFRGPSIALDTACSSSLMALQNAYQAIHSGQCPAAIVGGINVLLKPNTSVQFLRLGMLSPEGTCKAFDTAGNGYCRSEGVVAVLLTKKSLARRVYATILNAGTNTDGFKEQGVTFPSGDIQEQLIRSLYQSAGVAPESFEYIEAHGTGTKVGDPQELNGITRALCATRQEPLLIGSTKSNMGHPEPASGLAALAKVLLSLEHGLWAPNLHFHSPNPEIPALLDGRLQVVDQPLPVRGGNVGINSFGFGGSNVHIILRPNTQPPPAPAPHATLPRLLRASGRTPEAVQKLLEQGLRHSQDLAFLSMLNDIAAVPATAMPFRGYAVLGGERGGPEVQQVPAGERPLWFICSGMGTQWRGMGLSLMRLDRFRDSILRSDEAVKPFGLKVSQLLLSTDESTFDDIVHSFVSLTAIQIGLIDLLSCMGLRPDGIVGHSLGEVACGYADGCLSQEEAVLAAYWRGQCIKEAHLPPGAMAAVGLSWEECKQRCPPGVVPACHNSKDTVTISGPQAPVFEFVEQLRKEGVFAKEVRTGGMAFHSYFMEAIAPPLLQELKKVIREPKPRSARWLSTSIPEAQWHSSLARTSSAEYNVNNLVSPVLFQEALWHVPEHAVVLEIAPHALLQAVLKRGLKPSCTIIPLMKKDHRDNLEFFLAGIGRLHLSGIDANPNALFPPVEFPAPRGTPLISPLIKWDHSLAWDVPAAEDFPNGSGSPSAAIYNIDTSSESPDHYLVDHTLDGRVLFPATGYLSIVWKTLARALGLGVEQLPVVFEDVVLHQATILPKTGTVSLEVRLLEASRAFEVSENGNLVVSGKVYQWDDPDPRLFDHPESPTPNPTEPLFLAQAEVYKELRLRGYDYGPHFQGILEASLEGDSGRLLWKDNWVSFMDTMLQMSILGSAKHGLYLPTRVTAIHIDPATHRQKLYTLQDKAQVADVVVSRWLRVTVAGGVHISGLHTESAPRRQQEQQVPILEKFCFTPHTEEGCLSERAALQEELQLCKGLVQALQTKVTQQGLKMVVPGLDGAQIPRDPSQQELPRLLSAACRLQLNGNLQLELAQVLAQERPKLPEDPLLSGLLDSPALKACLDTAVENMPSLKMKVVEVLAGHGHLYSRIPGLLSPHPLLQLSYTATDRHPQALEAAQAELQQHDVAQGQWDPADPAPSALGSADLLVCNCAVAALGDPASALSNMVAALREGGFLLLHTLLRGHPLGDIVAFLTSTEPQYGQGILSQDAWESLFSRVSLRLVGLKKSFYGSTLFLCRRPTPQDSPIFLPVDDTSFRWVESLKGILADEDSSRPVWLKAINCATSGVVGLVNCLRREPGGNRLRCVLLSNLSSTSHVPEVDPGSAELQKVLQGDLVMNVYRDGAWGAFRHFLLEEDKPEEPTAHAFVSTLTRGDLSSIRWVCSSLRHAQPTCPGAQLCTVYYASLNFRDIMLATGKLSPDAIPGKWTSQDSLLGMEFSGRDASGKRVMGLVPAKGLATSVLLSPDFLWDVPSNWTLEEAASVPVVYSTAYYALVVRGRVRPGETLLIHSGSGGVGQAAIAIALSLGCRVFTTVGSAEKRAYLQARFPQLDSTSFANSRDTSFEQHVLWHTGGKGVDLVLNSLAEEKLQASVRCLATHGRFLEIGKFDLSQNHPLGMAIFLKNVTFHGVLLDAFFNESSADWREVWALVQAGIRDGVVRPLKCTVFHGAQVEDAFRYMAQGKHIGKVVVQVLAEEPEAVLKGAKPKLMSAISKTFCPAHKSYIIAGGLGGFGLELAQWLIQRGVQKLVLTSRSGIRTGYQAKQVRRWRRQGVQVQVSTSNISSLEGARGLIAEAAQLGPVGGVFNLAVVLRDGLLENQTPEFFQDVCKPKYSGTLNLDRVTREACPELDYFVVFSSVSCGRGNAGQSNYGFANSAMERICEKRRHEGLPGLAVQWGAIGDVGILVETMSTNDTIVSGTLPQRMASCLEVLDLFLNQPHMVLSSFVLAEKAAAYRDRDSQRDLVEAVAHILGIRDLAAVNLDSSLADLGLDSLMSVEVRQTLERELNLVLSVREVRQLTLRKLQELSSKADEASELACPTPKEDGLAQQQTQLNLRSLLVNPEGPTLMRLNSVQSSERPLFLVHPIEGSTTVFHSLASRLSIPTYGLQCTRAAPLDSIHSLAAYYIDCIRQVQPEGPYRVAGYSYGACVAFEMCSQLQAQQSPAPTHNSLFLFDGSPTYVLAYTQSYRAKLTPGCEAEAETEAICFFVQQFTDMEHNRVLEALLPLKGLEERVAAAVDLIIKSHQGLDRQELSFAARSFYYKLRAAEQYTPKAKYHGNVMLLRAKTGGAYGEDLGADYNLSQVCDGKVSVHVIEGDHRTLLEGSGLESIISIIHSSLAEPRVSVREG

Fatty acid synthase [9] = molecular target: T3, Fatty acid synthase; test: FAS thioesterase domain inhibitors, dose response, biochemical, endpoint fluorescence intensity, uHTS hits (AID 624327); assay type: functional;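 also: fluorescence from hydrolysis of an O-methyl fluorescein acyl ester substrate by the enzyme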
[10] = molecular target: T4, Replicative DNA helicase DnaB (Mycobacterium tuberculosis, UniProt P9WMR3); test: DnaB intein splicing inhibitors, dose response, biochemical, cell-free fluorescence (AID 449749); assay type: functional
T4 sequence (P9WMR3 whole entry): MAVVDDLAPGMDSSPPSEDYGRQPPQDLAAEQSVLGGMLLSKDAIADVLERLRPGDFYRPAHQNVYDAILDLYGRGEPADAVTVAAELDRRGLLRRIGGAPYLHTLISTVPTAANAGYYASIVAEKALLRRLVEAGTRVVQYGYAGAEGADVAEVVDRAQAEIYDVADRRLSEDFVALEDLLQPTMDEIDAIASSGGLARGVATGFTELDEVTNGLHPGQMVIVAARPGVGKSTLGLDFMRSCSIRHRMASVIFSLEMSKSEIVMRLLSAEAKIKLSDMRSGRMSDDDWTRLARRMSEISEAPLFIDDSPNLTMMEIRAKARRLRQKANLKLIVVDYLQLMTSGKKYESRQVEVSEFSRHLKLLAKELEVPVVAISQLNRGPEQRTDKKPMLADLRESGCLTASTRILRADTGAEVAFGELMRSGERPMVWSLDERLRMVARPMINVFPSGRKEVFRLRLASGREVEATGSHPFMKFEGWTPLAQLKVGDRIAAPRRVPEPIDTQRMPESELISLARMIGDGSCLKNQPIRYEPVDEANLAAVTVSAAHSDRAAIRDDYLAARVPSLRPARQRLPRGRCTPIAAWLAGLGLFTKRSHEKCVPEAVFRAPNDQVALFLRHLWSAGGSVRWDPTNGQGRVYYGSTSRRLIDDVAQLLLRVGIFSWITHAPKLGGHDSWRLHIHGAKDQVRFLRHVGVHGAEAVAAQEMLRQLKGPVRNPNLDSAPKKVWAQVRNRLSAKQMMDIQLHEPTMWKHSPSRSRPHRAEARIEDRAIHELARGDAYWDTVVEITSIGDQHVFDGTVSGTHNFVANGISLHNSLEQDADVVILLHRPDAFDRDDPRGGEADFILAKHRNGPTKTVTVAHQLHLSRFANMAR

[11] = molecular target: T5, Heat shock factor protein 1 (Mus musculus, UniProt P38532); test: HSF1 potentiators in luciferase reporter cells, confirmation, cell-based, NIH3T3, luminescence, dose retest (AID 435004); assay type: functional;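 also: stress induced by proteasome inhibitor MG132 added 30 min after compound; luciferase reporter driven by HSF1 response element in NIH3T3 cells; actives raise luminescence as potentiators of the MG132 stress response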
T5 sequence (P38532 whole entry): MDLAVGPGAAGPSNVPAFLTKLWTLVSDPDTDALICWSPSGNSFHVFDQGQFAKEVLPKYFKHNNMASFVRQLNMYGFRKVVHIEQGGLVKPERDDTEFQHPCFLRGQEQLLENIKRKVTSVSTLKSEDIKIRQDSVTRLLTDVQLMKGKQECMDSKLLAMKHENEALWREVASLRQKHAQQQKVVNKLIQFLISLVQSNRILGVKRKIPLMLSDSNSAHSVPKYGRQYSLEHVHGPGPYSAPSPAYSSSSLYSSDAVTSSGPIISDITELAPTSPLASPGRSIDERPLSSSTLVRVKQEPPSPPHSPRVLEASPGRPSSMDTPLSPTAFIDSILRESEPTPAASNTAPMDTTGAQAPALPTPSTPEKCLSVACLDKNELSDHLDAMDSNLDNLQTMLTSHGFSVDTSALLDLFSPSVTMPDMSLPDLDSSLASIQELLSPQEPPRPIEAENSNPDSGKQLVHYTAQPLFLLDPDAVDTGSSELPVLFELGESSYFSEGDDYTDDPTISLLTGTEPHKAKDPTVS

P388/ADR = test: cells; assay type: functional; conditions: Mus musculus
SN12K1 = test: cells; assay type: functional; conditions: Homo sapiens
Paired box protein Pax-8 = Paired box protein Pax-8 (Homo sapiens, UniProt Q06710); test: inhibitors of PAX8-driven TPO luciferase reporter, dose response, RMG-I cells, cherry-pick (AID 687027); assay type: functional, cell-based;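 also: luciferase reporter driven by Pax8 target thyroperoxidase promoter measured by SteadyGlo luminescence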
Chain of Paired box protein Pax-8 (Q06710 whole entry): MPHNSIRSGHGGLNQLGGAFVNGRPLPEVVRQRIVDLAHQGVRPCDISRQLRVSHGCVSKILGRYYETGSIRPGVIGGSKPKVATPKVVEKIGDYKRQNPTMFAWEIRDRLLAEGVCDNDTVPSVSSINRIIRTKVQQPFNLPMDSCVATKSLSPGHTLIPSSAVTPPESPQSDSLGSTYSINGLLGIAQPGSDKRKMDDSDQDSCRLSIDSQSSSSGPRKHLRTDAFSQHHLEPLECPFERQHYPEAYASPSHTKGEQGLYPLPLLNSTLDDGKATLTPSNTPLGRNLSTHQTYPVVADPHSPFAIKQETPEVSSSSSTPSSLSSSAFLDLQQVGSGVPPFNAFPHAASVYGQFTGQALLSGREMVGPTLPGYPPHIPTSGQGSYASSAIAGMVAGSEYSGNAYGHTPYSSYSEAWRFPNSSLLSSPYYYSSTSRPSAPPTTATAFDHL

[12] = P. falciparum Dd2 growth inhibitors, dose response, SYBR Green, cherry-picked samples (AID 1159567); assay type: functional, cell-based

Chain of Luciferin 4-monooxygenase (P08659 whole entry): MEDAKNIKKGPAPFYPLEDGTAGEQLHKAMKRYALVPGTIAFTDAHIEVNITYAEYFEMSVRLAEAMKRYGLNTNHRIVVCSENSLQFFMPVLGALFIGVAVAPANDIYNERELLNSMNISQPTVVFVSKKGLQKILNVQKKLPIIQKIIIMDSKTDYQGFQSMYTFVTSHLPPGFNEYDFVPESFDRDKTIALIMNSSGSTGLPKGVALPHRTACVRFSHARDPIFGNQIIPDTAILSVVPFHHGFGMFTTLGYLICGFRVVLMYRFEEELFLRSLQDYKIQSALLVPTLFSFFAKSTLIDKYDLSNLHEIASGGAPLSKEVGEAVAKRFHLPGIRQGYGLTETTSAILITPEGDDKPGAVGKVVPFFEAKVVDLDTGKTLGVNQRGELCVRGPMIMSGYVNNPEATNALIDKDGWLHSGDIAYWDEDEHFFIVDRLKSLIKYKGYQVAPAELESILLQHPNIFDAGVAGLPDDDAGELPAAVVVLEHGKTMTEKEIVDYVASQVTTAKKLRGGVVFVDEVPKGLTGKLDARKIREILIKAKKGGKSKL

## Cc1ccc(CN2CC(C(=O)OCc3ccccc3Cl)CC2=O)cc1 (configuration not stated)
cells
  IC50: 7.41 µM (active)

## Cc1cccc(OCc2nnc(SCC(=O)Nc3ncc(C)s3)o2)c1
[1]
  EC50: > 112 µM (not active)
[2]
  EC50: > 112 µM (not active)

## CCOC(=O)COc1ccc(C(=O)NC2CCCCC2)cc1
cells
  IC50: 7.69 µM (active)

## COc1cccc(-c2nc(-c3ccc(C(=O)O)cc3)no2)c1
[1]
  EC50: 0.794 µM (active)
[2]
  EC50: 4.03 µM (active)

## CCNc1nc(Oc2ccc(=O)n(-c3ccccc3)n2)nc(N(C)C)n1
[1]
  EC50: > 112 µM (not active)
[2]
  EC50: > 112 µM (not active)

## CC(C(=O)NC1C=CS(=O)(=O)C1)N1C(=O)/C(=C\c2ccccc2)SC1=S (configuration not stated)
[3]
  AC50: 0.359 µM (active)

## CCC1(c2ccc(Cl)cc2)N=C(S)N(c2ccccc2)N1 (configuration not stated)
[4]
  EC50: 14.2 µM (active)

## O=C(CSc1nnc(C2CC2)n1-c1ccccc1)Nc1ccc(N2CCOCC2)cc1
[1]
  EC50: > 112 µM (not active)
[2]
  EC50: > 112 µM (not active)

## Cc1ccc2oc(-c3cccc(NC(=O)Cn4cnc5c(=O)n(C)c(=O)n(C)c54)c3)nc2c1
[5]
  EC50: 42.3 µM (active)
H4
  EC50: 6.94 µM (active)

## COc1ccc([N+](=O)[O-])cc1C1NN=C(c2cccc3ccccc23)S1 (configuration not stated)
[1]
  EC50: > 112 µM (not active)
[2]
  EC50: > 112 µM (not active)

## CC(=O)Nc1ccc(N2C(=O)CSC2c2ccc(F)cc2)cc1 (configuration not stated)
[3]
  AC50: < 0.005 µM (active)

## CCN(CC)c1ccc(NS(=O)(=O)c2ccc3c(c2)oc(=O)n3C)c(C)c1
[3]
  AC50: 0.409 µM (active)

## O=C1NC(=O)N(c2ccc(C(=O)O)cc2)C(=O)/C1=C/c1c[nH]c2ccccc12
[6]
  IC50: 97.5 µM (active)
[3]
  AC50: 0.177 µM (active)

## O=C(c1ccc2c(c1)OCO2)N1CCC2(CC1)Oc1ccc(F)cc1C(=O)C21CC(c2cccnc2)=NO1 (configuration not stated)
[7]
  EC50: 0.566 µM (inconclusive)
[4]
  EC50: 49.2 µM (active)

## Cn1cc(SCC(=O)Nc2nc3ccccc3s2)c2ccccc21
[1]
  EC50: > 112 µM (not active)
[2]
  EC50: > 112 µM (not active)

## CCN(CC)c1ccc(NS(=O)(=O)c2ccc(OC)cc2)cc1
[3]
  AC50: 5.11 µM (active)

## Cc1cccc(NNC(=O)C(=O)NNc2cccc(C)c2)c1
[4]
  EC50: 2.38 µM (active)

## CC(=O)Nc1sc(NC(=O)c2ccccc2)nc1-c1cccs1
[3]
  AC50: 3.14 µM (active)

## COc1ccc(-c2ncc3ccccn23)cc1
[5]
  EC50: 101 µM (active)
H4
  EC50: 32.1 µM (active)

## Cc1onc(-c2ccccc2)c1C(=O)n1nnc2ccccc21
Protein RecA
  EC50: 13 µM (active)
Fatty acid synthase [8]
  IC50: 10.3 µM (active)
Fatty acid synthase [9]
  IC50: 12.9 µM (active)
[10]
  AC50: 7.85 µM (active)

## COc1ccc(NC(=O)c2cc(S(=O)(=O)N3CCOCC3)cn2C)c(OC)c1
[1]
  EC50: > 112 µM (not active)
[2]
  EC50: > 112 µM (not active)

## COc1ccc(/C=C(/NC(=O)c2ccccc2)c2nc3cc(Cl)ccc3[nH]2)cc1OC
[7]
  EC50: 4.44 µM (active)
[4]
  EC50: > 150 µM (inconclusive)

## CCCCn1c(CCC(=O)O)ccc1-c1cccs1
[1]
  EC50: > 112 µM (not active)
[2]
  EC50: > 112 µM (not active)

## Cn1c(=O)c(Oc2ccc(Cl)cc2)c(O)c2ccccc21
cells
  IC50: 3.7 µM (active)

## O=C(Cc1ccc(Cl)cc1)Nc1ccc(Br)cc1
[4]
  EC50: > 150 µM (inconclusive)

## CC[C@@H]1[C@H]2CCCC(=O)N3CC[C@@H](C[C@@H]1Nc1ccccc1)[C@@H]23
[11]
  EC50: > 260 µM (inactive)
[3]
  AC50: 0.008 µM (active)

## CCS(=O)(=O)N1CCN=C1SCc1cccnc1
[3]
  AC50: 2.06 µM (active)

## CN(C)c1cccc(OC(=O)NCCCl)c1
P388/ADR
  GI50: 31 µM (inactive)
SN12K1
  GI50: > 100 µM (inactive)

## CCCN(C)C[C@H]1OCCCC[C@@H](C)Oc2ccc(NC(=O)Nc3ccc(C(F)(F)F)cc3)cc2C(=O)N([C@H](C)CO)C[C@H]1C
Paired box protein Pax-8
  AC50: 23.1 µM (active)

## CN(C)c1ccc(/C=N/NC(=O)CNC(=O)c2ccncc2)cc1
[3]
  AC50: 3.61 µM (active)

## CCOC(=O)N/N=C1\CCc2ccccc21
[5]
  EC50: 7.73 µM (active)
H4
  EC50: 11.7 µM (active)

## CCS(=O)(=O)N1CCC2(CC1)CN(C(=O)Nc1cccc(F)c1)[C@H](CO)c1c2c2ccc(OC)cc2n1C
[12]
  AC50: 4.52 µM (active)

## CCCc1cn([C@@H]2C[C@@H]3O[C@H](CO)CC[C@@H]3O[C@@H]2CCc2ccc(-c3cccc(OC)c3)cc2)nn1
[12]
  AC50: 2.81 µM (active)
